“Also recorded” adds a separate entry of the source.
Columns and labels:
[1] = target: KIT D816V kinase activity (KIT autophosphorylation at tyrosine 719) in HMC1.2 cells (Homo sapiens (Human), UniProt P10721, D816V/V560G); assay: HMC1.2 autophosphorylation assay (phospho-Y719 c-KIT AlphaLISA); assay type: cell-based; conditions: HMC1.2 mast cell leukemia cell line (KIT V560G, D816V), 90 minutes compound; read-out: INH-KIT-PHOS-HMC1.2
D816V KIT = D816V KIT (Homo sapiens (Human), UniProt P10721, D816V); assay: KIT D816V assay at Km (Caliper electrophoretic mobility shift); conditions: biochemical, 15 uM ATP (Km), 90 minutes at 25 C; read-out: INH KIT D816V
PDGFRA D842V = PDGFRA D842V (Homo sapiens (Human), UniProt P16234, D842V); assay: PDGFRA D842V assay at Km (Caliper electrophoretic mobility shift); conditions: biochemical, 15 uM ATP (Km), 90 minutes at 25 C; read-out: INH PDFGRA D842V
[2] = Body weight changes in the tumor bearing mice (P815 xenograft)
[3] = mouse, in vivo
P815 tumor cells = assay: P815 mastocytoma xenograft model, tumor growth; assay type: in vivo, mouse; conditions: P815 xenograft in female BALB/c nude mice; 3, 10, 30, 100 mg/kg p.o. QD × 10
Protocol: Compound 46 and Dasatinib were evaluated in a P815 mastocytoma xenograft model. P815 tumor cells (ATCC, Manassas, Va., cat # ATCC® TIB-64) were maintained in vitro as a suspension and monolayer culture in RPMI1640 medium supplemented with 10% fetal calf serum at 37° C. in an atmosphere of 5% CO2 in air. The tumor cells were sub-cultured twice weekly by trypsin-EDTA treatment. The cells growing in an exponential growth phase were harvested and counted for tumor inoculation.
Tumor sizes were measured every other day in two dimensions using a caliper, and the volume was expressed in mm^3 using the formula: V=0.5 a×b^2 where a and b were the long and short diameters of the tumor, respectively. […] T-C was calculated with T as the median time (in days) required for the treatment group tumors to reach a predetermined size (e.g., 1000 mm^3), and C as the median time (in days) for the control group tumors to reach the same size. […]
TGI was calculated for each group using the formula: TGI (%)=[1−(Ti−T0)/(Vi−V0)]×100; Ti is the average tumor volume of a treatment group on a given day, T0 is the average tumor volume of the treatment group on the day of treatment start, Vi is the average tumor volume of the vehicle control group on the same day with Ti, and V0 is the average tumor volume of the vehicle group on the day of treatment start. Tumor weight was measured at the endpoint. […]

KIT D816V kinase activity (KIT autophosphorylation at tyrosine 719) in HMC1.2 cells, sequence (P10721 26-976 V560G/D816V): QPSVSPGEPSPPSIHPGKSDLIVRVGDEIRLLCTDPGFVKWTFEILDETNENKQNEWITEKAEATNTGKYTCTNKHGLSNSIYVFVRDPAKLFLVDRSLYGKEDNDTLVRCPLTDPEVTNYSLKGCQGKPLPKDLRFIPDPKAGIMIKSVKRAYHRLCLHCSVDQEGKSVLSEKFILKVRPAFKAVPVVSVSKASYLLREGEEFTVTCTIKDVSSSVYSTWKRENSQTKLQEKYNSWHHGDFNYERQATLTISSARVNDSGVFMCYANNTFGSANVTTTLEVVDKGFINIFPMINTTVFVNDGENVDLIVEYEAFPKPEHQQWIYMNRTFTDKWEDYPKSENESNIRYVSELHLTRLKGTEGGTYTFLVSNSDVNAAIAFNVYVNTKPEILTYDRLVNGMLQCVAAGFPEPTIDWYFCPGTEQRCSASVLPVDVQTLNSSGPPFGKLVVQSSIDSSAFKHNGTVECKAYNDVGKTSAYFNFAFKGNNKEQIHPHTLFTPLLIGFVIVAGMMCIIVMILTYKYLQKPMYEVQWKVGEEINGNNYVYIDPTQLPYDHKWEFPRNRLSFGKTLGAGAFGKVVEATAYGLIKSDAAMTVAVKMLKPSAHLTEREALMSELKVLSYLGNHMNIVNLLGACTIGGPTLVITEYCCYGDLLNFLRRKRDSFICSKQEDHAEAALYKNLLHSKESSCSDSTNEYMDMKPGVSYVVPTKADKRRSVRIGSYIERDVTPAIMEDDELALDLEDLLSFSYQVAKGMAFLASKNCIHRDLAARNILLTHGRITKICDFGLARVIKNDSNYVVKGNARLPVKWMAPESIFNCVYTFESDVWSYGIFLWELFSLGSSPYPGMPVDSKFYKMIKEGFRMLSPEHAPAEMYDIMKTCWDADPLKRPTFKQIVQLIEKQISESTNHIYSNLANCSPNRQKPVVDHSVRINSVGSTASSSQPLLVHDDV
D816V KIT, sequence (P10721 26-976 D816V): as the sequence (P10721 26-976 V560G/D816V) above, with G535V counted along it
PDGFRA D842V, sequence (P16234 24-1089 D842V): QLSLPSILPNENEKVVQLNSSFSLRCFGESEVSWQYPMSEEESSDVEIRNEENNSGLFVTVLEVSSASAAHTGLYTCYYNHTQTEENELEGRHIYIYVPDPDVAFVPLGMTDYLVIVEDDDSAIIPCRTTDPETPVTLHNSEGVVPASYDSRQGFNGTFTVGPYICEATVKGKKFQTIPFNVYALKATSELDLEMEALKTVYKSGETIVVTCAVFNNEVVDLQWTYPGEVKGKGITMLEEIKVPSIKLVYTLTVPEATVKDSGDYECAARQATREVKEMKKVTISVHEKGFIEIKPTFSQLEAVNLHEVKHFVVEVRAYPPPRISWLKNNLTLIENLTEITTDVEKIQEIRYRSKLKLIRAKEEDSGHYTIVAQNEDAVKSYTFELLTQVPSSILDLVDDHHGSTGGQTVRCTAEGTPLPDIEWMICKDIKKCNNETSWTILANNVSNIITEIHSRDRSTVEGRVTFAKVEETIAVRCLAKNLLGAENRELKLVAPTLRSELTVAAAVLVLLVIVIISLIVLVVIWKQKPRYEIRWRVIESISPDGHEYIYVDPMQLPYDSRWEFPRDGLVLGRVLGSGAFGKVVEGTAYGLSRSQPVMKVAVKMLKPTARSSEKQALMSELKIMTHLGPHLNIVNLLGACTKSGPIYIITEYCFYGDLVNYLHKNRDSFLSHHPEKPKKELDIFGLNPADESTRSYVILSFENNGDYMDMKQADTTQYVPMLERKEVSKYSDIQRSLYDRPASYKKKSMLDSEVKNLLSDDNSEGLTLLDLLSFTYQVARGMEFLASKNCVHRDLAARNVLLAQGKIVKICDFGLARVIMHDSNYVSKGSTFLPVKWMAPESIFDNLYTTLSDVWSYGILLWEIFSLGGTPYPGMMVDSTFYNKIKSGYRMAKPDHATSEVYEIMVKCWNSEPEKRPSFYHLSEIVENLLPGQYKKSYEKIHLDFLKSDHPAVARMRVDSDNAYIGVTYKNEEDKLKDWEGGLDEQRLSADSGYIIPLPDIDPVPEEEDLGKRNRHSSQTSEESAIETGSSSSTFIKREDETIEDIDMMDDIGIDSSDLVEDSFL

SMILES | IC50 [1] | IC50 (D816V KIT) | IC50 (PDGFRA D842V) | body weight loss ([2]; Dasatinib 25 mg/kg p.o. BID × 10) | tolerability [3] | tumor growth inhibition (P815 tumor cells) | body weight change ([2]; Compound 46 3-100 mg/kg p.o. QD × 10, even at the higher doses)
Cn1cc(-c2cc3c(N4CCN(c5ncc([C@@](N)(c6ccc(F)cc6)C(F)F)cn5)CC4)ncnn3c2)cn1 [Compound 111] | < 50 nM | < 1 nM | < 1 nM | – | – | – | –
C[C@](N)(c1ccccc1)c1cnc(N2CCN(c3ncnn4cc(-c5ccc(F)cc5)cc34)CC2)nc1 [Compound 34] | 50 to 100 nM | < 1 nM | < 1 nM | – | – | – | –
Cn1cc(-c2cc3c(N4CCN(c5ncc([C@@](C)(N)c6ccccc6)cn5)CC4)ncnn3c2)cn1 [Compound 22] | < 50 nM | < 1 nM | < 1 nM | – | – | – | –
Cn1cc(-c2cc3c(N4CCN(c5ncc(Sc6ccccc6F)cn5)[C@H](CO)C4)ncnn3c2)cn1 [Compound 97] | < 50 nM | 1.01 to 10 nM | 1.01 to 10 nM | – | – | – | –
Cn1cc(-c2cc3c(N4CCN(c5ncc([C@](C)(CO)c6ccc(F)cc6)cn5)CC4)ncnn3c2)cn1 [Compound 79] | < 50 nM | 1.01 to 10 nM | < 1 nM | – | – | – | –
CCn1cc(-c2cc3c(N4CCN(c5ncc([C@@](C)(N)c6ccccc6)cn5)CC4)ncnn3c2)cn1 [Compound 35] | < 50 nM | < 1 nM | < 1 nM | – | – | – | –
Cn1cc(-c2cc3c(N4CCN(c5ncc([C@@](C)(O)c6ccc(F)cc6F)cn5)CC4)ncnn3c2)cn1 [Compound 94] | < 50 nM | < 1 nM | < 1 nM | – | – | – | –
COc1ccc(-c2cc3c(N4CCN(c5ncc([C@@](C)(O)c6ccc(F)cc6)cn5)CC4)ncnn3c2)cc1 [Compound 102] | 50 to 100 nM | 1.01 to 10 nM | 1.01 to 10 nM | – | – | – | –
Cn1cc(-c2cc3c(N4CCN(c5ncc([C@](C)(O)c6ccc(Cl)cc6)cn5)CC4)ncnn3c2)cn1 [Compound 84] | < 50 nM | 1.01 to 10 nM | 1.01 to 10 nM | – | – | – | –
C[C@@H](c1ccccc1)c1cnc(N2CCN(c3ncnn4cc(-c5cnn(C)c5)cc34)CC2)nc1 [Compound 10, (S)-6-(1-methyl-1H-pyrazol-4-yl)-4-(4-(5-(1-phenylethyl)pyrimidin-2-yl)piperazin-1-yl)pyrrolo[1,2-f][1,2,4]triazine] | < 50 nM | < 1 nM | < 1 nM | – | – | – | –
C[C@@H]1CN(c2ncnn3cc(-c4cnn(C)c4)cc23)CCN1c1ncc([C@@](C)(O)c2ccc(F)cc2)cn1 [Compound 77] | < 50 nM | 1.01 to 10 nM | < 1 nM | – | – | – | –
Cn1cc(-c2cc3c(N4CCN(c5ncc([C@@](C)(O)c6c(F)cc(F)cc6F)cn5)CC4)ncnn3c2)cn1 [Compound 116] | < 50 nM | < 1 nM | < 1 nM | – | – | – | –
C[C@H](c1ccccc1)c1cnc(N2CCN(c3ncnn4cc(-c5cnn(C)c5)cc34)CC2)nc1 [Compound 9, (R)-6-(1-methyl-1H-pyrazol-4-yl)-4-(4-(5-(1-phenylethyl)pyrimidin-2-yl)piperazin-1-yl)pyrrolo[1,2-f][1,2,4]triazine] | < 50 nM | 1.01 to 10 nM | 1.01 to 10 nM | – | – | – | –
C[C@@](O)(c1ccc(F)cc1)c1cnc(N2CCN(c3ncnn4cc(-c5cn[nH]c5)cc34)CC2)nc1 [Compound 29] | 50 to 100 nM | 1.01 to 10 nM | 1.01 to 10 nM | – | – | – | –
Cn1cc(-c2cc3c(N4CCN(c5ncc(C(C)(C)c6ccc(F)cc6)cn5)CC4)ncnn3c2)cn1 [Compound 39] | < 50 nM | 1.01 to 10 nM | < 1 nM | – | – | – | –
Cn1cc(-c2cc3c(N4CCN(c5ncc([C@](C)(O)c6c(F)cc(F)cc6F)cn5)CC4)ncnn3c2)cn1 [Compound 115] | < 50 nM | 1.01 to 10 nM | < 1 nM | – | – | – | –
Cn1cc(-c2cc3c(N4CCN(c5ncc([C@](C)(N)c6ccccc6)cn5)CC4)ncnn3c2)cn1 [Compound 21] | 50 to 100 nM | 1.01 to 10 nM | < 1 nM | – | – | – | –
CO[C@](C)(c1ccc(F)cc1)c1cnc(N2CCN(c3ncnn4cc(-c5cnn(C)c5)cc34)CC2)nc1 [Compound 68] | < 50 nM | 1.01 to 10 nM | 1.01 to 10 nM | – | – | – | –
C[C@](N)(c1ccc(F)cc1)c1cnc(N2CCN(c3ncnn4cc(-c5cn[nH]c5)cc34)CC2)nc1 [Compound 26] | < 50 nM | < 1 nM | < 1 nM | – | – | – | –
C[C@](N)(c1ccc(F)cc1)c1cnc(N2CCN(c3ncnn4cc(-c5ccc(F)cc5)cc34)CC2)nc1 [Compound 62] | 50 to 100 nM | 1.01 to 10 nM | 1.01 to 10 nM | – | – | – | –
Cc1nc(Nc2ncc(C(=O)Nc3c(C)cccc3Cl)s2)cc(N2CCN(CCO)CC2)n1 [Dasatinib, reference compound] | – | – | – | more than 5% | – | – | –
C[C@@H]1CN(c2ncnn3cc(-c4cnn(C)c4)cc23)CCN1c1ncc([C@](C)(O)c2ccc(F)cc2)cn1 [Compound 76] | 50 to 100 nM | 1.01 to 10 nM | 1.01 to 10 nM | – | – | – | –
Cn1cc(-c2cc3c(N4CCN(c5ncc([C@@](C)(O)c6ccc(F)cc6)cn5)CC4)ncnn3c2)cn1 [Compound 46] | < 50 nM | < 1 nM | < 1 nM | – | well tolerated | effective in inhibiting tumor growth; also recorded: observable antitumor activity | less than 5%
Cn1cc(-c2cc3c(N4CCN(c5ncc([C@@](O)(c6ccc(F)cc6)C(F)F)cn5)CC4)ncnn3c2)cn1 [Compound 117] | < 50 nM | < 1 nM | 1.01 to 10 nM | – | – | – | –
